“And” between values parts separate entries of the source, which are not always exact repeats. Identical values can stand only once. Like-named read-outs stand apart in the source and are kept apart here.
What was measured:
HIV-1 [1] = assay: Cell-based inhibition assay in transfected COS-1 cells, ELISA p24 capture assay of tissue culture media; details: K21 100 μM, N20 20 μM, 24-hr treatment
Method: COS-1 cells were seeded on twelve-well plates and grown in 1 ml of DMEM with 10% fbs and 1% Penicillin/Streptomycin. The following day, well were confluency was ˜60% were selected for co-transfection with an NL4-3 derived construct (pdeltaEnv) and pIIIEnv for expression of HIV-1 virus-encoded proteins. Inhibitor treatment was done on two sets of transfected cells: one, at 5 hr post-transfection and the other, at 24 hours post-transfection. In each case, the tissue culture media was removed and replaced with treatment Nedd4 inhibitor (100 μM final concentration for K21 and 20 μM final concentration for N20) or DMSO control (1% final concentration) in DMEM with 10% FBS, 1% Penicillin/Streptomycin, 5 mM MgCl2, and 0.5 mM CaCl2. After a 24-hr treatment period, the tissue culture media was collected, cleared of debris by running through a 0.45 um syringe filter and analyzed for amount of virus particles by Elisa p24 capture assay.
At 100 μM, K21 was inhibitory to virus particle release. […] This was true whether the inhibitor was added at 5 hrs post-transfection or at 24 hrs post transfection. At 20 μM, N20 was also exerted an inhibitory effect on virus particle release but it was different from that of K21.

COS-1 cells = details: K21 100 μM, N20 20 μM; for Cytotoxicity, average of the independent experiments: average in parentheses, DMSO 21%; for Cytotoxicity (blue cells/total cells x 100): single count, DMSO 24%, 18%
Method: The standard trypan blue assay, where dead cells are blue when visualized under a light microscope, was used to determine the percent of dead cells in the culture. Briefly, cells from a well of DMSO-treated, K21-treated and N20-treated samples were dislodged from the well with a stream of 1 ml PBS, collected, pelleted at 200 rpm for 2 min, and suspended in 300 μl trypsin-EDTA, incubated at 37° C. for 30 min. A diluted cell suspension was prepared by mixing 200 μl of the trypsin-treated cell suspension and 800 μl of PBS was used for the assay. For the assay itself: from the 1 ml of diluted cell suspension, 50 μl was taken an placed on paraffin and to this was mixed in 50 μl of 0.4% Trypan Blue dye in PBS, after exactly 2 minutes later, the mixture was loaded on a hematocytometer. The hematocytometer was placed on the light microscope stage and a blue cell count and an all cells count (blue and not blue cells) obtained. Two 50 μl aliquots were counted per sample.

HIV-1 [2] = assay: Specific infectivity by MAGI assay; assay type: cell-based; details: versus DMSO controls
Method: The amount of infectious virus normalized to ng of p24 obtained from the ELISA assay in the tissue cultures was determined by multinuclear activation of a galactosidase indicator (MAGI) assay. In this assay, infectious unit is scored by the blue color that is assumed by infected MAGI cells (Hela cells that have been engineered to express the indicator when the infecting particle is able to simulated natural infection up until expression of HIV-1 Tat).

293 cells [3] = test system: 293 cells
293 cells [4] = assay: Toxicity of inhibitor concentrations to cultured cells of the VLP release assay; details: concentrations of FIG. 6A
[5] = inhibitor added 5 hrs post-transfection
[6] = inhibitor added 24 hrs post-transfection

| Compound | Amount of virus particle detected in tissue culture media (HIV-1 [1]; [5]) | Amount of virus particle detected in tissue culture media (HIV-1 [1]; [6]) | Cytotoxicity, average of the independent experiments (COS-1 cells) | Cytotoxicity (blue cells/total cells x 100) (COS-1 cells; listed as K21, hydrochloride) | Counts of blue cells per ng p24 (specific infectivity) (HIV-1 [2]) | Cell toxicity of inhibitor concentrations (293 cells [3]) | Cytotoxicity (blue cells/total cells x 100) (COS-1 cells; listed as N20) | Cell toxicity of inhibitor concentrations (293 cells [4]) |
| --- | --- | --- | --- | --- | --- | --- | --- | --- |
| Cl.NC(CO)C(=O)NNCc1ccc(O)c(O)c1O (racemic) [Benserazide Hydrochloride, (RS)-2-amino-3-hydroxy-N′-(2,3,4-trihydroxybenzyl) propanehydrazide hydrochloride] | reduction in the amount of virus particle detected | reduction in the amount of virus particle detected | (31%) | 34% and 28% | comparable | not cell toxic | – | – |
| CN(C)[C@@H]1C(O)=C(C(N)=O)C(=O)[C@@]2(O)C(=O)C3=C(O)c4c(O)cccc4[C@@](C)(O)[C@H]3[C@H](O)[C@@H]12 [Oxytetracycline, (4S,4aR,5S,5aR,6S,12aS)-4-(dimethylamino)-3,5,6,10,11,12a-hexahydroxy-6-methyl-1,12-dioxo-1,4,4a,5,5a,6,12,12a-octahydrotetracene-2-carboxamide] | reduction in the amount of virus particle detected | reduction was not seen | (32%) | – | comparable | – | 29% and 35% | not cell toxic |
